Here are results for 3 molecules from patent publication US20250019671A1, “RECOMBINANT POLYPEPTIDE HAVING CARBOXYLIC ACID REDUCING ACTIVITY” (priority 2021, published 2025).

The test system of data set [1] is Mycobacterium abscessus carboxylic acid reductase variant G418E. Conditions: literature value (Non Patent Literature 6); cited from earlier work.
Data set [2] relates to Mycobacterium abscessus carboxylic acid reductase variant L342E. Conditions: literature value (Non Patent Literature 6); cited from earlier work.
Data set [3] concerns the target Mycobacterium abscessus carboxylic acid reductase variant W283R/A303M (modified carboxylic acid reductase 1), SEQ ID NO: 3 (Mycobacteroides abscessus, UniProt B1MLD7, A303M/W283R). Conditions: disodium adipate 0.1875-3 mM; 0.2 mM NADPH, 0.5 mM ATP, pH=8.0, 30° C.; mean of two independent studies. From the text:
(§1) Examples of the recombinant polypeptide (also referred to as “modified carboxylic acid reductase”) having the amino acid sequence A according to the present invention are illustrated in FIG. 3 (modified carboxylic acid reductase 1, SEQ ID NO: 3) and FIG. 4 (modified carboxylic acid reductase 2, SEQ ID NO: 4). The modified carboxylic acid reductase 1 (consisting of the polypeptide set forth in SEQ ID NO: 3) illustrated in FIG. 3 has amino acid substitutions of W283R and A303M with respect to SEQ ID NO: 1. The modified carboxylic acid reductase 2 (consisting of the polypeptide set forth in SEQ ID NO: 4) illustrated in FIG. 4 has amino acid substitutions of W283R and L335F with respect to SEQ ID NO: 1. That is, in the modified carboxylic acid reductase 1, the amino acid residue at the position corresponding to position 283 and the amino acid residue at the position corresponding to position 303 are substituted with arginine and methionine, respectively, based on the amino acid sequence set forth in SEQ ID NO: 1. In the modified carboxylic acid reductase 2, the amino acid residue at the position corresponding to position 283 and the amino acid residue at the position corresponding to position 335 are substituted with arginine and phenylalanine, respectively, based on the amino acid sequence set forth in SEQ ID NO: 1.

The test system of data set [4] is Mycobacterium abscessus carboxylic acid reductase variant W283R/A303M (modified carboxylic acid reductase 1), SEQ ID NO: 3.
Source text: as §1

For a further data set, the system named is O=C(O)CCCCC(=O)O. Put plainly: purified protein, by the assay type. Particulars: 0.2 mM NADPH, 0.5 mM ATP, 10 mM MgCl2, 100 mM HEPES potassium buffer pH=8.0, 30° C., mean of two independent studies.
Where [5] appears, read: other: disodium adipate 3.125-50 mM.

For the molecule `O=C(O)CCCCC(=O)O` [adipic acid, hexanedioic acid], in data set [1], the Km is 18.7 mM. Moreover, in data set [2], the Kcat is 2.72 ± 0.09 s⁻¹ and the Km is 56.6 mM. Further, in data set [3], the Kcat came to 3.53 s⁻¹ and the Vmax was determined as 24.8 µmol/L/min. Also, the “Km of the mutant enzyme for adipic acid compared to the existing variant carboxylic acid reductases (L342 and G418E mutants)” value in data set [4] (W283R/A303M mutant vs literature L342 and G418E mutants) is listed as 1/17. In addition, the “Km of the mutant enzyme for adipic acid relative to that of the wild-type enzyme” value in data set [4] (W283R/A303M mutant vs wild-type enzyme) is given as 1/20.

In the case of “Mycobacterium abscessus carboxylic acid reductase variant W283R/A303M (modified carboxylic acid reductase 1), SEQ ID NO: 3 (Mycobacteroides abscessus ATCC 19977; A303M/W283R)”, the Km in the data set with O=C(O)CCCCC(=O)O (other: disodium adipate 0.1875-3 mM) turned out to be 1.06 mM.

Regarding “Mycobacterium abscessus carboxylic acid reductase, wild-type, SEQ ID NO: 1 (Mycobacteroides abscessus ATCC 19977)”, in the data set with O=C(O)CCCCC(=O)O (setting [5]), the Km is 23.3 mM, the Vmax was determined as 18.1 µM/min and the kcat worked out at 1.68 s⁻¹.

The Km is the substrate concentration at which the rate is half of its maximum. Broadly, the Vmax is the rate approached at saturating substrate. A word on the kcat: it is the maximal rate divided by the concentration of active sites.
